Laboratory results as given in ChEMBL document CHEMBL5465560, “Selectivity Literature for EUbOPEN Chemogenomic Library” (2024).

Experiments:
[1] = molecular target: Type-1 angiotensin II receptor (Homo sapiens, UniProt P30556); assay: Selectivity interaction (Angiotensin II AT1 receptor binding assay, human recombinant ) EUB0000877a AGTR1
[2] = molecular target: T1, Rho-associated protein kinase 2 (Homo sapiens, UniProt O75116); assay: Selectivity interaction (KinomeScan (DiscoverX)) EUB0000607a ROCK2; details: at 10 µM
T1 sequence (O75116 whole entry, looked up): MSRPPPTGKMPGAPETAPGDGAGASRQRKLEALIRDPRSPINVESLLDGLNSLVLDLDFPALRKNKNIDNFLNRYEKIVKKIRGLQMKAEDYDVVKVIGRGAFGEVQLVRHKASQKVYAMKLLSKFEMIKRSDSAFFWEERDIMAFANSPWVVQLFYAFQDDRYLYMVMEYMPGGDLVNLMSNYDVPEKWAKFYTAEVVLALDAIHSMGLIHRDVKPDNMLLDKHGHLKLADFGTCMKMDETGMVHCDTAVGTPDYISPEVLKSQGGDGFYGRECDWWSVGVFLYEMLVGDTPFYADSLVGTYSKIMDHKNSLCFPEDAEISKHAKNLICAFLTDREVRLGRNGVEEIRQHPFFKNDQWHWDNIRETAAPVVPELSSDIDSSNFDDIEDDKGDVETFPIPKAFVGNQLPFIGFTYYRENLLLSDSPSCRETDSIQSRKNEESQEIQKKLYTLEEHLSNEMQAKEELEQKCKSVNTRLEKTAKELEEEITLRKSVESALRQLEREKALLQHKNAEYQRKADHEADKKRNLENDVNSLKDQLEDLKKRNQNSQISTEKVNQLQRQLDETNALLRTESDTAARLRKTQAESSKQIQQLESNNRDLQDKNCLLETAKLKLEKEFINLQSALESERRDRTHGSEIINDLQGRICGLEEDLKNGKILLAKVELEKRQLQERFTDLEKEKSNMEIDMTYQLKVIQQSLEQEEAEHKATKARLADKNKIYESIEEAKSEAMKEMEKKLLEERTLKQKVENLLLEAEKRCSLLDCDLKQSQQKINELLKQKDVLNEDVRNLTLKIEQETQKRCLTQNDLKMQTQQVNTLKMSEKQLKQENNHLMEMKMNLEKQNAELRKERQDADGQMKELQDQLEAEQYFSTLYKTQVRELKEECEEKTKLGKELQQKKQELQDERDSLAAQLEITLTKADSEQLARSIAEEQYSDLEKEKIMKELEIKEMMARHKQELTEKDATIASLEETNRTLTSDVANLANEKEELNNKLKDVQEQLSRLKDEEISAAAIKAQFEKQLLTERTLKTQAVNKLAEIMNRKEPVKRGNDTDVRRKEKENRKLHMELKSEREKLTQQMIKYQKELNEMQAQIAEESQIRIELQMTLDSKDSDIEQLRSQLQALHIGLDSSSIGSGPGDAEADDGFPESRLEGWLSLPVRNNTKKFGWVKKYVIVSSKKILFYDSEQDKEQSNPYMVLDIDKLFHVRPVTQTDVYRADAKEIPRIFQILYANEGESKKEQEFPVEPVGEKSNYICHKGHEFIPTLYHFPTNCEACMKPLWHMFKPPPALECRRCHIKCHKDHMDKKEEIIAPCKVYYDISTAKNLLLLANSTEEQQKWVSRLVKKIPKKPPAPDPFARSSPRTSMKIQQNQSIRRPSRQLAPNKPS

[3] = molecular target: T2, Aurora kinase A (Homo sapiens) (UniProt O14965); assay: Selectivity interaction (ActivX KiNativ screen (kinase selectivity in THP-1 cell lysates)) EUB0000639a STK6; type: subcellular; details: lysate, at 5 µM
T2 sequence (whole entry): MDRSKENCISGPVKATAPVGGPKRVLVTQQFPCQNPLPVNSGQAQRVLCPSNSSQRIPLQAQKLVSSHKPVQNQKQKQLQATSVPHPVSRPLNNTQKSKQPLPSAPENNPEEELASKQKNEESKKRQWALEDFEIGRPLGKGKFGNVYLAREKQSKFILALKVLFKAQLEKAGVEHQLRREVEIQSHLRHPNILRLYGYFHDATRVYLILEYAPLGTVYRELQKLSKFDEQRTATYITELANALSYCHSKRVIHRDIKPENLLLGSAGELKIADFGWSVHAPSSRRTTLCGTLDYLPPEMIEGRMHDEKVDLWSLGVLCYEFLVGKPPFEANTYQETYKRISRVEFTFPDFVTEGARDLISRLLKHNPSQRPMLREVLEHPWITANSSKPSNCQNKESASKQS

[4] = molecular target: Phosphatidylinositol 4,5-bisphosphate 3-kinase catalytic subunit alpha isoform (Homo sapiens) (UniProt P42336); assay: (§1) Selectivity interaction (KinomeScan (DiscoverX)) EUB0000695a PIK3CA; details: at 100 nM
[5] = tested on: Phosphatidylinositol 4,5-bisphosphate 3-kinase catalytic subunit alpha isoform (Homo sapiens), P42336 [C420R]; assay: as §1; details: at 100 nM
[6] = tested on: Phosphatidylinositol 4,5-bisphosphate 3-kinase catalytic subunit alpha isoform (Homo sapiens), P42336 [E542K]; assay: as §1; details: at 100 nM
[7] = tested on: Phosphatidylinositol 4,5-bisphosphate 3-kinase catalytic subunit alpha isoform (Homo sapiens), P42336 [E545A]; assay: as §1; details: at 100 nM
[8] = tested on: Phosphatidylinositol 4,5-bisphosphate 3-kinase catalytic subunit alpha isoform (Homo sapiens), P42336 [E545K]; assay: as §1; details: at 100 nM
[9] = tested on: Phosphatidylinositol 4,5-bisphosphate 3-kinase catalytic subunit alpha isoform (Homo sapiens), P42336 [H1047L]; assay: as §1; details: at 100 nM
[10] = tested on: Phosphatidylinositol 4,5-bisphosphate 3-kinase catalytic subunit alpha isoform (Homo sapiens), P42336 [H1047Y]; assay: as §1; details: at 100 nM
[11] = tested on: Phosphatidylinositol 4,5-bisphosphate 3-kinase catalytic subunit alpha isoform (Homo sapiens), P42336 [I800L]; assay: as §1; details: at 100 nM
Sequence of Phosphatidylinositol 4,5-bisphosphate 3-kinase catalytic subunit alpha isoform (Homo sapiens), P42336 [I800L] (P42336 whole entry I800L, canonical isoform): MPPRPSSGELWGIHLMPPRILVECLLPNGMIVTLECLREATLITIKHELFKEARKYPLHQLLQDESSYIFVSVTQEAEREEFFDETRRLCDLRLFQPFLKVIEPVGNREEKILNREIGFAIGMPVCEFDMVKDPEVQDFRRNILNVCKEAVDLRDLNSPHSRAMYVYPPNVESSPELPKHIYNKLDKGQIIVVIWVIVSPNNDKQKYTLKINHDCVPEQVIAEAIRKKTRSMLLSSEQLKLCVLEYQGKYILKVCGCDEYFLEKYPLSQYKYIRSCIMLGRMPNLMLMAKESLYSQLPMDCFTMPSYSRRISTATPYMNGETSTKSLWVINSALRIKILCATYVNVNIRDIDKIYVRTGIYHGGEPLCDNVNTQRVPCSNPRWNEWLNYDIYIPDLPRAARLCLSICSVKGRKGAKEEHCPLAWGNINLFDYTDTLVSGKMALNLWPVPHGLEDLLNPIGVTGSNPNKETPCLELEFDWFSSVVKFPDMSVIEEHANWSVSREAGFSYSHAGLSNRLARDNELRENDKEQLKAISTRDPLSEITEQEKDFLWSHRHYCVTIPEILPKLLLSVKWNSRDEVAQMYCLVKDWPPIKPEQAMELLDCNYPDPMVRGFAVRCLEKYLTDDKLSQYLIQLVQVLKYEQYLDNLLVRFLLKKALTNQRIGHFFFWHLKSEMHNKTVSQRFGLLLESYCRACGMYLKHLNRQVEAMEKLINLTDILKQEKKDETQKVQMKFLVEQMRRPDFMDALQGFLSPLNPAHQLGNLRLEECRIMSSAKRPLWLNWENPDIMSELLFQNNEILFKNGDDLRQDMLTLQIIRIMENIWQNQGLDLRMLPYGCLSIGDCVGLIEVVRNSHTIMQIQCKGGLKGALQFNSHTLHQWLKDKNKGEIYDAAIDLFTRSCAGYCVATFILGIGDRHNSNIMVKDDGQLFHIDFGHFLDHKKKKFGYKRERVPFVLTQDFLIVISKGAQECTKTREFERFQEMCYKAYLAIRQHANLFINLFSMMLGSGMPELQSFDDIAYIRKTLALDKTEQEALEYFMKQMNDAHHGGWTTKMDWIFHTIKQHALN

[12] = tested on: Phosphatidylinositol 4,5-bisphosphate 3-kinase catalytic subunit alpha isoform (Homo sapiens), P42336 [M1043I]; assay: as §1; details: at 100 nM
[13] = tested on: Phosphatidylinositol 4,5-bisphosphate 3-kinase catalytic subunit alpha isoform (Homo sapiens), P42336 [Q546K]; assay: as §1; details: at 100 nM
[14] = molecular target: T1, Rho-associated protein kinase 2; assay: Selectivity interaction (Kinase screening (Upstate/Millipore)) EUB0000604a ROCK2
[15] = molecular target: Ribosomal protein S6 kinase alpha-4 (Homo sapiens) (UniProt O75676); assay: Selectivity interaction (Kinase screening (Nanosyn)) EUB0000604a RPS6KA4
[16] = molecular target: Phosphatidylinositol 4,5-bisphosphate 3-kinase catalytic subunit beta isoform (Homo sapiens) (UniProt P42338); assay: Selectivity interaction (KinomeScan (DiscoverX)) EUB0000655a PIK3CB; details: at 10 µM
[17] = molecular target: T3, Phosphatidylinositol 5-phosphate 4-kinase type-2 beta (Homo sapiens) (UniProt P78356); assay: Selectivity interaction (KinomeScan (DiscoverX)) EUB0000655a PIP4K2B; details: at 10 µM
T3 sequence (whole entry): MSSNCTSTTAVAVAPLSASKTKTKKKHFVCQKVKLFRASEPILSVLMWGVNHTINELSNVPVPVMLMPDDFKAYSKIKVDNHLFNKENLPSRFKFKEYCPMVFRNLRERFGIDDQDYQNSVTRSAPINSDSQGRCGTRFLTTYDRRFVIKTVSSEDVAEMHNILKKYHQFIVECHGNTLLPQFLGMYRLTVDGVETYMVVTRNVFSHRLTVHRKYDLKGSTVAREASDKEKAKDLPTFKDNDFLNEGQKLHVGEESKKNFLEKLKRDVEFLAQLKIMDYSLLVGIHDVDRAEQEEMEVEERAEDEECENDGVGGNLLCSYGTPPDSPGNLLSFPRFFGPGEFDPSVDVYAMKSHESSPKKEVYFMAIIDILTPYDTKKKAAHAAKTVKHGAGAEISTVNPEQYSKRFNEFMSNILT

[18] = molecular target: Cyclin-dependent kinase 18 (Homo sapiens) (UniProt Q07002); assay: Selectivity interaction (KinomeScan (DiscoverX)) EUB0000045b CDK18
Sequence of Cyclin-dependent kinase 18 (Homo sapiens) (Q07002 whole entry): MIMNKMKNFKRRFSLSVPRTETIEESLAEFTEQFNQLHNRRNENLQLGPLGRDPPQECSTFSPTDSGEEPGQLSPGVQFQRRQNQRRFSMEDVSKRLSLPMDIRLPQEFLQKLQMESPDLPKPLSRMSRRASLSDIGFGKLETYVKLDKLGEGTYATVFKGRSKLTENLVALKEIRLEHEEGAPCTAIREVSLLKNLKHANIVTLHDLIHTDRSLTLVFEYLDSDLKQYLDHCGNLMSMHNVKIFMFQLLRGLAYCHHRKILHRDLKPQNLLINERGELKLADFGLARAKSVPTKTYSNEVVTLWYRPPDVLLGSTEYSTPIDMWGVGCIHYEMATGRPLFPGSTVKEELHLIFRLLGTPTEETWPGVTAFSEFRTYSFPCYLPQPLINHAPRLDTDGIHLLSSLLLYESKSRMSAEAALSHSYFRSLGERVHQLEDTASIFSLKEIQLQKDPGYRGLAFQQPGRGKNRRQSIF

[19] = tested on: Tyrosine-protein kinase ABL1 (Homo sapiens), P00519 [F317L]; assay: Selectivity interaction (KinomeScan (DiscoverX)) EUB0001079a ABL1; details: at 1 µM
Sequence of Tyrosine-protein kinase ABL1 (Homo sapiens), P00519 [F317L] (P00519 whole entry F317L): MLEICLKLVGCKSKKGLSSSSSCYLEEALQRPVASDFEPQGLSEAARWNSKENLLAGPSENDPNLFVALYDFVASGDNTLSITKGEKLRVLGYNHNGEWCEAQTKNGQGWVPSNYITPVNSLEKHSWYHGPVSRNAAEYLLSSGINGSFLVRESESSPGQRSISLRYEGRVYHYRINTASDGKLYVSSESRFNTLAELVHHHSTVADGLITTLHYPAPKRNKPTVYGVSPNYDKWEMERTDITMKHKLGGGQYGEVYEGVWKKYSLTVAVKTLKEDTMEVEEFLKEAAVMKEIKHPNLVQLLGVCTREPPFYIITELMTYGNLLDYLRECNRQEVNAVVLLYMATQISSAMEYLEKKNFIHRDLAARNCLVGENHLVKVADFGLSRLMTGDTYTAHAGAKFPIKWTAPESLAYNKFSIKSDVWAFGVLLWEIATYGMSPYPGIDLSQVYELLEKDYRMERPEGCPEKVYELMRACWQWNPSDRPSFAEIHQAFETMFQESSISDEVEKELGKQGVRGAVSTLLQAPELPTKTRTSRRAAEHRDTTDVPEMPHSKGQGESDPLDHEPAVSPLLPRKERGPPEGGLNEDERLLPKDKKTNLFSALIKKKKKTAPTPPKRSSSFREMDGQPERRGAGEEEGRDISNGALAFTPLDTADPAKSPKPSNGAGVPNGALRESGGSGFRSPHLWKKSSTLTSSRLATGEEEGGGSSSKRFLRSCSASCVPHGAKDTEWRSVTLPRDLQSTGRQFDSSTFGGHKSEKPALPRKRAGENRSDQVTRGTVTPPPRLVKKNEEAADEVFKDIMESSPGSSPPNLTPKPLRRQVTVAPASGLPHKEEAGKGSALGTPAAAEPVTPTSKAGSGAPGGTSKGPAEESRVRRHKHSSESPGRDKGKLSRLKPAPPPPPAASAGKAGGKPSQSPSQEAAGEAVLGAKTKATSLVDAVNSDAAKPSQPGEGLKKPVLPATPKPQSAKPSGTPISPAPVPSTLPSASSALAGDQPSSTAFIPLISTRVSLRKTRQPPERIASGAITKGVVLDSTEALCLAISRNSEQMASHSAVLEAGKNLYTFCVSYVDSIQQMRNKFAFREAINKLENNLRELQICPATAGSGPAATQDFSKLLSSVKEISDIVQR

[20] = molecular target: Sigma intracellular receptor 2 (Homo sapiens) (UniProt Q5BJF2); assay: Selectivity interaction (GPCR panel (PDSP screen)) EUB0001079a TMEM97; details: at 10 µM
Sequence of Sigma intracellular receptor 2 (Homo sapiens) (Q5BJF2 whole entry): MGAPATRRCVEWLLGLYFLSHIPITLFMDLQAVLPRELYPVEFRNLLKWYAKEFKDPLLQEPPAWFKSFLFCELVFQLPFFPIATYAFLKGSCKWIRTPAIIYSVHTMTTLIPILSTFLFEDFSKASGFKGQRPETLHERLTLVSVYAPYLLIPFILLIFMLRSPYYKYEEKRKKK

[21] = molecular target: Mitogen-activated protein kinase 11 (Homo sapiens) (UniProt Q15759); assay: Selectivity interaction (Kinase panel (KiNativ target engagement assay in Jurkat cells)) EUB0001635a MAPK11; type: cell-based; details: Selectivity number of off-targets 0.0, Selectivity number of targets 233.0, Source Knowledge https://www.sciencedirect.com/science/article/pii/S2451945619300674?via%3Dihub, at 1 µM
Sequence of Mitogen-activated protein kinase 11 (Homo sapiens) (Q15759 whole entry): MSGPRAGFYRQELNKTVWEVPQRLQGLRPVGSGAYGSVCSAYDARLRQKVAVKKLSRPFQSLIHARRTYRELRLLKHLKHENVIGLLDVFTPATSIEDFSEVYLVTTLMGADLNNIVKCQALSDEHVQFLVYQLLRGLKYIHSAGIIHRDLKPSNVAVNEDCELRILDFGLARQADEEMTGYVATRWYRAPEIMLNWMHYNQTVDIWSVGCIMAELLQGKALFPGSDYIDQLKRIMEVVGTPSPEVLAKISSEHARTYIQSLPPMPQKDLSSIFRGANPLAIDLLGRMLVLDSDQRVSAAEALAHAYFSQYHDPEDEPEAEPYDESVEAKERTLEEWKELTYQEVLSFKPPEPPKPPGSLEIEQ

[22] = molecular target: T4, Serine/threonine-protein kinase 17A (Homo sapiens) (UniProt Q9UEE5); assay: Selectivity interaction (KinomeScan (DiscoverX)) EUB0000092b STK17A; details: at 10 µM
T4 sequence (whole entry): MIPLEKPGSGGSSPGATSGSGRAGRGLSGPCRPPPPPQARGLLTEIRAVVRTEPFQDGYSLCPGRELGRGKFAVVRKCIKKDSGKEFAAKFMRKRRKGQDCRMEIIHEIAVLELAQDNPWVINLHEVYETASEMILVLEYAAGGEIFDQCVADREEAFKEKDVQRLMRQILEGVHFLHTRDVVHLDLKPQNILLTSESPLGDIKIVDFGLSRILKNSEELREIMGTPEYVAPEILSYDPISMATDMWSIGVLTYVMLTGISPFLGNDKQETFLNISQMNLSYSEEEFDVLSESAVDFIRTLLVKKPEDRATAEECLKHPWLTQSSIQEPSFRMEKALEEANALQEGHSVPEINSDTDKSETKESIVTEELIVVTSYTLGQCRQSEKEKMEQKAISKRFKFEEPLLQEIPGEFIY

[23] = molecular target: Serine/threonine-protein kinase 38 (Homo sapiens) (UniProt Q15208); assay: Selectivity interaction (KinomeScan (DiscoverX)) EUB0000092b STK38; details: at 10 µM
Sequence of Serine/threonine-protein kinase 38 (Homo sapiens) (Q15208 2-465 limits assumed): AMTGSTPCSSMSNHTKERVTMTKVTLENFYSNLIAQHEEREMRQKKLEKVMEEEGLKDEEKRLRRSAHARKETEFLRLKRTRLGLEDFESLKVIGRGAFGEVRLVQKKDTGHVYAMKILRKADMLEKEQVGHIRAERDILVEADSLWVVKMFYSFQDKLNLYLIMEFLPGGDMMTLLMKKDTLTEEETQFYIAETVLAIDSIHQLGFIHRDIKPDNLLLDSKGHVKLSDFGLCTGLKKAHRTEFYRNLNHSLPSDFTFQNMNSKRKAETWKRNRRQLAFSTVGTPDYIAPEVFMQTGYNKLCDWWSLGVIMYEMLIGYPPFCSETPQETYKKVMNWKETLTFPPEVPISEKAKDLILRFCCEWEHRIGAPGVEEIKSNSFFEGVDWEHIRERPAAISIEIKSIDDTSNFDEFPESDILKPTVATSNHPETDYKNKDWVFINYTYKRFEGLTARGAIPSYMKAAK

[24] = molecular target: Tyrosine-protein kinase HCK (Homo sapiens) (UniProt P08631); assay: Selectivity interaction (ActivX KiNativ screen (ex vivo kinase selectivity in human PBMCs)) EUB0001619a HCK; type: cell-based; details: PBMC, at 1 µM

CCC(=O)N1CC[C@H](Nc2ncnc3c2CN(c2cnc(OC)c(C(F)(F)F)c2)CC3)C1 [LENIOLISIB]
IC50 [1]: > 30 µM

CNC(=O)Nc1ccc(-c2nc(N3CC4CCC(C3)O4)c3cnn(C4CCC5(CC4)OCCO5)c3n2)cc1
% of control [2]: 100%

CC[C@@H]1[C@H](F)C(=O)N[C@@H]1COc1nccc2cc(C(N)=O)c(OC)cc12 [ZIMLOVISERTIB]
% of inhibition [3]: 64.4%

Cc1cc(F)c(C(=O)Nc2cccc(-c3nncn3C(C)C)n2)cc1-n1cnc(C2CC2)c1
% of control [4]: 100%
% of control [5]: 100%
% of control [6]: 100%
% of control [7]: 100%
% of control [8]: 99%
% of control [9]: 100%
% of control [10]: 100%
% of control [11]: 89%
% of control [12]: 93%
% of control [13]: 100%

Cc1cnc(Nc2ccc(F)cc2Cl)nc1-c1c[nH]c(C(=O)N[C@H](CO)c2cccc(Cl)c2)c1
% of inhibition [14]: 57%
% of inhibition [15]: 6%

CN(C)CCOc1ccc(-c2nc(-c3ccncc3)c(-c3ccc4c(c3)CC/C4=N\O)[nH]2)cc1
% of control [16]: 100%
% of control [17]: 94%

C=CC(=O)Nc1cc(-n2c(=O)ccc3cnc4ccc(-c5ccc(NS(C)(=O)=O)cc5)cc4c32)ccc1C
% of control ([18]; at 1 µM): 83%
% of control ([18]; at 10 µM): 88%

Nc1cnc(N2CCc3cc(S(=O)(=O)Nc4c(F)cc(Cl)cc4F)cc(N4CCCC4=O)c32)nc1 [TP-020n]
% of control [19]: 78%
% of inhibition [20]: -12%

C=CC(=O)Nc1ccc(C(=O)Nc2[nH]nc3c2CN(C(=O)N[C@H](CN(C)C)c2ccccc2)C3(C)C)cc1
% of engagement [21]: -9.9%

CCC(=O)N1CCN(c2ccc(-n3c(=O)ccc4cnc5ccc(-c6cnc7ccccc7c6)cc5c43)cc2C(F)(F)F)CC1
% of control [22]: 93%
% of control [23]: 100%

N#Cc1cccc(-c2c[nH]c3ncnc(N4CCOCC4)c23)c1
% of inhibition [24]: 21%
